Laboratory results: ChEMBL document CHEMBL2029212, “Discovery of 1,4-disubstituted 3-cyano-2-pyridones: a new class of positive allosteric modulators of the metabotropic glutamate 2 receptor” (J Med Chem, 2012)
Each block holds one compound with its values, some of them ahead of it. Activity calls are given as the source filed them. The rule behind the calls is not given here.

Assays:
[1] = Ratio of drug level in brain to plasma in Swiss mouse at 10 mg/kg, sc after 1 hr; format: ADME, organism-based; parameters: dose 10 mg/kg, route subcutaneous; settings: read-out: BPR
[2] = Drug metabolism in rat liver microsomes at 5 uM after 15 mins; format: ADME, Microsome; settings: read-out: Drug metabolism
[3] = target: hERG (Homo sapiens, UniProt Q12809); assay: Inhibition of human ERG expressed in HEK293 cells assessed as whole cell current at 3 uM after 5 mins by automated patch-clamp assay relative to control; format: cell-based; settings: HEK293 cells expressing hERG
[4] = Drug metabolism in human liver microsomes at 5 uM after 15 mins; format: ADME, Microsome; settings: read-out: Drug metabolism
[5] = Drug level in Swiss mouse brain at 10 mg/kg, sc after 0.5 hrs; format: ADME, organism-based; parameters: dose 10 mg/kg, route subcutaneous; settings: read-out: Drug uptake
[6] = Drug level in Swiss mouse brain at 10 mg/kg, sc after 1.5 hrs; format: ADME, organism-based; parameters: dose 10 mg/kg, route subcutaneous; settings: read-out: Drug uptake
[7] = target: T1, Metabotropic glutamate receptor 2 (Homo sapiens, UniProt Q14416); assay: Positive allosteric modulation of human mGlu2 receptor expressed in CHO cells assessed as glutamate-induced [35S]GTPgammaS binding after 30 mins by liquid scintillation counting; format: functional, cell-based
Target sequence in this assay (Q14416 whole entry): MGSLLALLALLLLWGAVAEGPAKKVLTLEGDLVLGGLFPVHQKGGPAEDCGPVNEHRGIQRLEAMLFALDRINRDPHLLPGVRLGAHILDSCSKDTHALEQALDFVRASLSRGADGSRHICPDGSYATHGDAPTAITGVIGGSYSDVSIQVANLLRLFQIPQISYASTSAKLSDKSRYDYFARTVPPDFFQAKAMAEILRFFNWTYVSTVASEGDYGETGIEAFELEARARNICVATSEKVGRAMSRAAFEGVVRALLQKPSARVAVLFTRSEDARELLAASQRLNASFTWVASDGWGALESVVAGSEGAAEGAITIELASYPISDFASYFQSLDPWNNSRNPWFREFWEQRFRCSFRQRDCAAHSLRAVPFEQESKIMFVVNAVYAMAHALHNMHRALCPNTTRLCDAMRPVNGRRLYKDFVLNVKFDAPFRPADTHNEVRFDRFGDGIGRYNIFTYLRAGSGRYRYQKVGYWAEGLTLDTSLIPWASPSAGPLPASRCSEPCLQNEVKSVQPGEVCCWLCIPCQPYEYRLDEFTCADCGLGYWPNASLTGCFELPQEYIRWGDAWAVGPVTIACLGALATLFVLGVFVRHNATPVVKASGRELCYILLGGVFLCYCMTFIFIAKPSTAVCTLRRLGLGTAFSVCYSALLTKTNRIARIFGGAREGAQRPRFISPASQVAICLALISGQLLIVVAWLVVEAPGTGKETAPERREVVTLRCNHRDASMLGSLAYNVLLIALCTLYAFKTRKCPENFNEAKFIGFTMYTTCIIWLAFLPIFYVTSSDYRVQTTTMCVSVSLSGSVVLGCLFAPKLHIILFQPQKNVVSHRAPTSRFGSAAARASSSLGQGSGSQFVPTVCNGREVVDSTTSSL

[8] = Drug level in Swiss mouse brain at 10 mg/kg, sc after 1 hr; format: ADME, organism-based; parameters: dose 10 mg/kg, route subcutaneous; settings: read-out: Drug uptake
[9] = target: T1, Metabotropic glutamate receptor 2; assay: Positive allosteric modulation of human mGlu2 receptor expressed in CHO cells assessed as glutamate-induced [35S]GTPgammaS binding after 30 mins by liquid scintillation counting relative to glutamate; format: functional, cell-based
Target sequence in this assay (Q14416 19-872 limits assumed): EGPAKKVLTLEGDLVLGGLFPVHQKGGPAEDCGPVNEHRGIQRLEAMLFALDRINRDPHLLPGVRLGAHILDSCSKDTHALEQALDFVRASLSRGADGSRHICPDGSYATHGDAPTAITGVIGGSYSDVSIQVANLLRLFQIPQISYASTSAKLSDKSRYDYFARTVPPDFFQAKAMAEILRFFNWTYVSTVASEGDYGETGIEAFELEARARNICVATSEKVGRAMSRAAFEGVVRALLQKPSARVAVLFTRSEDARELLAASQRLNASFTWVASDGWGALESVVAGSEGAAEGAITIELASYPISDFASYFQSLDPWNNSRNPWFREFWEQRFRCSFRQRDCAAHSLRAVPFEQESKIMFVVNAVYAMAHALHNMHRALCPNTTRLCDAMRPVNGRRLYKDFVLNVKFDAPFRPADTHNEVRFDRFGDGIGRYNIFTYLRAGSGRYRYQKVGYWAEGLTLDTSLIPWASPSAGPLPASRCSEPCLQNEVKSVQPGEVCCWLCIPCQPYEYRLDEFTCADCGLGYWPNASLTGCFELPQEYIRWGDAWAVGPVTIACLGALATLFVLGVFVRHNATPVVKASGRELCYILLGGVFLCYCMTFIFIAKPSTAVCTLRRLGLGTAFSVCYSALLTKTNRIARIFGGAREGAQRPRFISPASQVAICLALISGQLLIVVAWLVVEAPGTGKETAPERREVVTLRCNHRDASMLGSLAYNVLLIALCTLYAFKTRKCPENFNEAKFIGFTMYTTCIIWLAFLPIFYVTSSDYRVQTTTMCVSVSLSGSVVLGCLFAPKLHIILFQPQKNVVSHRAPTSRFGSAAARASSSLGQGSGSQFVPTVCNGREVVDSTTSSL

[10] = target: Metabotropic glutamate receptor 3 (Homo sapiens) (UniProt Q14832); assay: Antagonist activity at human mGluR3 expressed in HEK293 cells by fluorescent Ca2+ assay; format: functional, cell-based
[11] = tested on: Rattus norvegicus; assay: Effect on sleep-awake cycle in Sprague-Dawley rat EEG model assessed as intermediate state of sleep time at 10 mg/kg, sc by sleep-wake electroencephalogram assay; format: functional, organism-based; parameters: dose 10 mg/kg
[12] = target: Metabotropic glutamate receptor 1 (Homo sapiens) (UniProt Q13255); assay: Agonist activity at human mGluR1 expressed in HEK293 cells by fluorescent Ca2+ assay; format: functional, cell-based
[13] = target: Metabotropic glutamate receptor 6 (Rattus norvegicus) (UniProt P35349); assay: Agonist activity at rat mGluR6 expressed in CHO cells by [35S]GTPgammaS binding assay; format: functional, cell-based
[14] = tested on: Rattus norvegicus; assay: Inhibition of rapid eye movement sleep in Sprague-Dawley rat EEG model at 10 mg/kg, sc up to 2 hrs by sleep-wake electroencephalogram assay; format: functional, organism-based; parameters: dose 10 mg/kg
[15] = target: Sodium-dependent noradrenaline transporter (Homo sapiens) (UniProt P23975); assay: Binding affinity to norepinephrine transporter at 10 uM
[16] = target: Metabotropic glutamate receptor 4 (Homo sapiens) (UniProt Q14833); assay: Antagonist activity at human mGluR4 expressed in L929 cells by [35S]GTPgammaS binding assay; format: functional, cell-based
[17] = target: Metabotropic glutamate receptor 6 (Rattus norvegicus) (UniProt P35349); assay: Antagonist activity at rat mGluR6 expressed in CHO cells by [35S]GTPgammaS binding assay; format: functional, cell-based
[18] = target: Metabotropic glutamate receptor 5 (Homo sapiens) (UniProt P41594); assay: Antagonist activity at human mGluR5 expressed in HEK293 cells by fluorescent Ca2+ assay; format: functional, cell-based
[19] = target: T1, Metabotropic glutamate receptor 2; assay: Positive allosteric modulation of human mGlu2 receptor expressed in CHO cells assessed as fold shift in glutamate-induced [35S]GTPgammaS binding at 3 uM after 30 mins by liquid scintillation counting; format: functional, cell-based
Target sequence in this assay (Q14416 19-872 limits assumed): as above

[20] = tested on: Rattus norvegicus; assay: Effect on sleep-awake cycle in Sprague-Dawley rat EEG model assessed as deep sleep time at 10 mg/kg, sc by sleep-wake electroencephalogram assay; format: functional, organism-based; parameters: dose 10 mg/kg
[21] = target: Metabotropic glutamate receptor 4 (Homo sapiens) (UniProt Q14833); assay: Agonist activity at human mGluR4 expressed in L929 cells by [35S]GTPgammaS binding assay; format: functional, cell-based
[22] = target: Metabotropic glutamate receptor 1 (Homo sapiens) (UniProt Q13255); assay: Antagonist activity at human mGluR1 expressed in HEK293 cells by fluorescent Ca2+ assay; format: functional, cell-based
[23] = tested on: Rattus norvegicus; assay: Effect on sleep-awake cycle in Sprague-Dawley rat EEG model assessed as active awake time at 10 mg/kg, sc by sleep-wake electroencephalogram assay; format: functional, organism-based; parameters: dose 10 mg/kg
[24] = tested on: Rattus norvegicus; assay: Effect on sleep-awake cycle in Sprague-Dawley rat EEG model assessed as light sleep time at 10 mg/kg, sc by sleep-wake electroencephalogram assay; format: functional, organism-based; parameters: dose 10 mg/kg
[25] = target: Metabotropic glutamate receptor 5 (Homo sapiens) (UniProt P41594); assay: Agonist activity at human mGluR5 expressed in HEK293 cells by fluorescent Ca2+ assay; format: functional, cell-based
[26] = target: Metabotropic glutamate receptor 3 (Homo sapiens) (UniProt Q14832); assay: Agonist activity at human mGluR3 expressed in HEK293 cells by fluorescent Ca2+ assay; format: functional, cell-based
[27] = tested on: Rattus norvegicus; assay: Effect on sleep-awake cycle in Sprague-Dawley rat EEG model assessed as increase of REM sleep onset latency at 10 mg/kg, sc by sleep-wake electroencephalogram assay; format: functional, organism-based; parameters: dose 10 mg/kg
[28] = tested on: Rattus norvegicus; assay: Effect on sleep-awake cycle in Sprague-Dawley rat EEG model assessed as passive wake time at 10 mg/kg, sc by sleep-wake electroencephalogram assay; format: functional, organism-based; parameters: dose 10 mg/kg
[29] = Aqueous solubility of the compound in 20% HP-beta-CD buffer at pH 4; format: physicochemical

hERG, sequence (Q12809 whole entry): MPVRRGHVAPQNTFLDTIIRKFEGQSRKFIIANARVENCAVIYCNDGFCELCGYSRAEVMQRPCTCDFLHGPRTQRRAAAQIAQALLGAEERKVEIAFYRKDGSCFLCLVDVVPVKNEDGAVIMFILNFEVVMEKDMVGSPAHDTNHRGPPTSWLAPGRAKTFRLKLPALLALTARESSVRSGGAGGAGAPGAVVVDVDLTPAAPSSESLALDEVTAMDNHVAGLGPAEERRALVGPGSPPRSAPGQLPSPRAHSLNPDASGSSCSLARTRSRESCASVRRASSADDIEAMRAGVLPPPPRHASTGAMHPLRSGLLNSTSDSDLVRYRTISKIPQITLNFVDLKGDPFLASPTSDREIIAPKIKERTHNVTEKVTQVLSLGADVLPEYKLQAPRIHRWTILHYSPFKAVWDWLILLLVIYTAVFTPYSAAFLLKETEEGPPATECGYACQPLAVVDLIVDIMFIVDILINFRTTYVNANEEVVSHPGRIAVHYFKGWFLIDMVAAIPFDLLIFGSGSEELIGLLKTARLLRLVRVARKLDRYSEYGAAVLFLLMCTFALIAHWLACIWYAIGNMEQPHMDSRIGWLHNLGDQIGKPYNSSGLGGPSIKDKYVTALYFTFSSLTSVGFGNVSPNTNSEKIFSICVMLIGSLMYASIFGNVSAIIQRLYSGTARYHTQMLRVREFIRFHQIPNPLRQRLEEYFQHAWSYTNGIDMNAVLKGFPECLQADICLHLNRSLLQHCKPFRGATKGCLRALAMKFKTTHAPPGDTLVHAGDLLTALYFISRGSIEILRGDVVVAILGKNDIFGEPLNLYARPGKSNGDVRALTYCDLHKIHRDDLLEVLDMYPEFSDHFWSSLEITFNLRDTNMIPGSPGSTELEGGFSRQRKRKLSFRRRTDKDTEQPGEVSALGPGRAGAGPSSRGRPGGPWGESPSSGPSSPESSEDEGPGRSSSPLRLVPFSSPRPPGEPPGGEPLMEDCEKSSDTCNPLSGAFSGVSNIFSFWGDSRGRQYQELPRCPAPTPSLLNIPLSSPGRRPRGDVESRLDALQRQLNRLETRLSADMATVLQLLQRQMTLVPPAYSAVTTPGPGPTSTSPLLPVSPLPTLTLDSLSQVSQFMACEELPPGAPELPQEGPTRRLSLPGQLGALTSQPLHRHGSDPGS
Metabotropic glutamate receptor 4 (Homo sapiens), sequence (Q14833 whole entry): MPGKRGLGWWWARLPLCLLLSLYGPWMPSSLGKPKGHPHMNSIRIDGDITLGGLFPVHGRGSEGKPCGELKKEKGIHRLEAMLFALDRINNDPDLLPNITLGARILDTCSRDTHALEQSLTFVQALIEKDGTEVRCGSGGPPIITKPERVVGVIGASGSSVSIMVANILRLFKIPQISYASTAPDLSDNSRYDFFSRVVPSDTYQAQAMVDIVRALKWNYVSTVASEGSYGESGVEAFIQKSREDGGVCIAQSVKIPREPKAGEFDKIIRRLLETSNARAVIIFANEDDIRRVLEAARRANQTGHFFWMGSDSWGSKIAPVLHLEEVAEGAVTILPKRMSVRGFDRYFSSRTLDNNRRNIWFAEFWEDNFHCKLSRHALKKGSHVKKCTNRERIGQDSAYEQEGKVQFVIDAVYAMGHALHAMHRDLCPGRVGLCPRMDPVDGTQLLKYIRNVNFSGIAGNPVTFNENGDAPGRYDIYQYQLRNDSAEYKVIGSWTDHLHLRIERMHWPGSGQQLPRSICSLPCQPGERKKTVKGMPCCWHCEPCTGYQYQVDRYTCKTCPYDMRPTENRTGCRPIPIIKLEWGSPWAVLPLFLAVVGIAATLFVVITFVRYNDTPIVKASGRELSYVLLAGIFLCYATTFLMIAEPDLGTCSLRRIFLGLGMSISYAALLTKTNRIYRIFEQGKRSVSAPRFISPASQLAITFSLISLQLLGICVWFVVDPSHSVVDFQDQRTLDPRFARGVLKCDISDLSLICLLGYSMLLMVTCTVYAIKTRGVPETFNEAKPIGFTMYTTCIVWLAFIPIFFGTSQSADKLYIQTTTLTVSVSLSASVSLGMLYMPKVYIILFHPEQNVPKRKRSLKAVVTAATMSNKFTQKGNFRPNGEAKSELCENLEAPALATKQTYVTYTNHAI
Metabotropic glutamate receptor 6 (Rattus norvegicus), sequence (P35349 whole entry): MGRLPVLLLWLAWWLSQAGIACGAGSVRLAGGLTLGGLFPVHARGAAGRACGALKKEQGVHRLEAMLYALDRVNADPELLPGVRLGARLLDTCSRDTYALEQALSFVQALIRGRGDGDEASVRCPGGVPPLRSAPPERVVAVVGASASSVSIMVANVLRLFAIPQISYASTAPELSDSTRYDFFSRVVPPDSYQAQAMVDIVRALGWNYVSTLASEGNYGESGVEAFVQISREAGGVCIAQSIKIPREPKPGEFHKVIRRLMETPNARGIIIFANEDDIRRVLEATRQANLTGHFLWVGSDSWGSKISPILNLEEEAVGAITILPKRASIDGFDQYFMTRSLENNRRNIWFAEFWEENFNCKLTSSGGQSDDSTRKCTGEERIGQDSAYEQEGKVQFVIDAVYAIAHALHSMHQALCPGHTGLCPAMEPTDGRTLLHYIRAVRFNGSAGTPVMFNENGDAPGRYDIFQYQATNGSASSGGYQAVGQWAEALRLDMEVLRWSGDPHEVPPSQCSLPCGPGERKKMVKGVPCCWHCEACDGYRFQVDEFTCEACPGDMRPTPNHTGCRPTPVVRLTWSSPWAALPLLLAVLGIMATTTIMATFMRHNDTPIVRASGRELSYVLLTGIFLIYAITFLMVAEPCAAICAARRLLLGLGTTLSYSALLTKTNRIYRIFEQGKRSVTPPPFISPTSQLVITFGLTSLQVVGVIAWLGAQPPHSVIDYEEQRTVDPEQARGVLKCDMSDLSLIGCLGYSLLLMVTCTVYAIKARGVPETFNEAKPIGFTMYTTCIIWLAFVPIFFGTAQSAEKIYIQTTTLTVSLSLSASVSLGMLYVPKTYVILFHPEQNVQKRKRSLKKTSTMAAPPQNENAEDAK

Kp at 1 h [1]: 0.4
metabolised at 0.25 h, 5 µM [2]: 50%
metabolised at 0.25 h, 5 µM [4]: 34%
concentration at 0.5 h [5]: 1480 ng/g
concentration at 1.5 h [6]: 281 ng/g
EC50 [7]: 30 nM
concentration at 1 h [8]: 830 ng/g
Emax [9]: 231%
SMILES: CCCCn1ccc(-c2ccc(Oc3ccc(C)nc3C)c(Cl)c2)c(C#N)c1=O
inhibition at 5 min, 3 µM [3]: 80%

metabolised at 0.25 h, 5 µM [2]: 45%
metabolised at 0.25 h, 5 µM [4]: 57%
EC50 [7]: 275 nM
Emax [9]: 256%
SMILES: Cc1ncccc1Oc1ccc(-c2ccn(CCC(C)C)c(=O)c2C#N)cc1
inhibition at 5 min, 3 µM [3]: 36%

metabolised at 0.25 h, 5 µM [2]: 99%
metabolised at 0.25 h, 5 µM [4]: 43%
EC50 [7]: 363 nM
Emax [9]: 200%
SMILES: COc1ccc(-c2ccn(CCC(C)C)c(=O)c2C#N)cc1Cl

metabolised at 0.25 h, 5 µM [2]: 33%
metabolised at 0.25 h, 5 µM [4]: 25%
EC50 [7]: 1480 nM
Emax [9]: 186%
SMILES: CC(C)CCn1ccc(-c2ccc(Nc3ccncc3)cc2)c(C#N)c1=O
inhibition at 5 min, 3 µM [3]: 91%

metabolised at 0.25 h, 5 µM [2]: 100%
metabolised at 0.25 h, 5 µM [4]: 36%
EC50 [7]: 8510 nM
Emax [9]: 117%
SMILES: CC(C)CCn1ccc(-c2ccccc2)c(C#N)c1=O

metabolised at 0.25 h, 5 µM [4]: 26%
EC50 [7]: 260 nM
Emax [9]: 242%
SMILES: COc1ccc(-c2ccn(CCC(C)C)c(=O)c2C#N)cc1OC

metabolised at 0.25 h, 5 µM [2]: 72%
metabolised at 0.25 h, 5 µM [4]: 17%
EC50 [7]: 110 nM
Emax [9]: 206%
SMILES: CC(C)CCn1ccc(-c2ccc(OCC3CC3)c(Cl)c2)c(C#N)c1=O

metabolised at 0.25 h, 5 µM [4]: 74%
Emax [9]: 176%
SMILES: COc1cccc(-c2ccn(CCC(C)C)c(=O)c2C#N)c1

metabolised at 0.25 h, 5 µM [2]: 44%
metabolised at 0.25 h, 5 µM [4]: 36%
EC50 [7]: 126 nM
Emax [9]: 233%
SMILES: Cc1cc(Oc2ccc(-c3ccn(CC4CCC4)c(=O)c3C#N)cc2)ccn1
inhibition at 5 min, 3 µM [3]: 80%

The remaining lines, values behind:

SMILES: Cc1ccc(Oc2ccc(-c3ccn(CC4CC4)c(=O)c3C#N)cc2)c(C)n1
metabolised at 0.25 h, 5 µM [2]: 42%
inhibition at 5 min, 3 µM [3]: 68%
metabolised at 0.25 h, 5 µM [4]: 35%
EC50 [7]: 263 nM
Emax [9]: 183%

SMILES: CCCCn1ccc(-c2ccc(Oc3cc(C)nc(C)c3)c(F)c2)c(C#N)c1=O
metabolised at 0.25 h, 5 µM [2]: 41%
inhibition at 5 min, 3 µM [3]: 71%
metabolised at 0.25 h, 5 µM [4]: 16%
EC50 [7]: 372 nM
Emax [9]: 217%

SMILES: COc1ccc(-c2ccn(CCC(C)C)c(=O)c2C#N)cc1
EC50 [7]: 1150 nM
Emax [9]: 160%

SMILES: CCCCn1ccc(-c2ccc(Oc3ccnc(C)c3)c(F)c2)c(C#N)c1=O
Activity [10]: inactive
Kp at 1 h [1]: 0.6
Activity [11]: inactive
Activity [12]: inactive
Activity [13]: inactive
inhibition [14]: Active
Activity [15]: > 50%
metabolised at 0.25 h, 5 µM [2]: 50%
Activity [16]: inactive
inhibition at 5 min, 3 µM [3]: 21%
Activity [17]: inactive
metabolised at 0.25 h, 5 µM [4]: 33%
Activity [18]: inactive
fold change (FC) [19]: 11
Activity [20]: inactive
Activity [21]: inactive
Activity [22]: inactive
Activity [23]: inactive
Activity [24]: inactive
concentration at 0.5 h [5]: 1280 ng/g
Activity [25]: inactive
Activity [26]: inactive
concentration at 1.5 h [6]: 1020 ng/g
Activity [27]: Active
Activity [28]: inactive
EC50 [7]: 316 nM
concentration at 1 h [8]: 1120 ng/g
Emax [9]: 233%

SMILES: CCCCn1ccc(-c2ccc(Oc3cccnc3C)cc2)c(C#N)c1=O
Kp at 1 h [1]: 0.3
metabolised at 0.25 h, 5 µM [2]: 50%
inhibition at 5 min, 3 µM [3]: 31%
metabolised at 0.25 h, 5 µM [4]: 30%
concentration at 0.5 h [5]: 822 ng/g
concentration at 1.5 h [6]: 100 ng/g
EC50 [7]: 347 nM
concentration at 1 h [8]: 294 ng/g
Emax [9]: 228%

SMILES: CC(C)CCn1ccc(-c2ccc(Oc3ccccn3)cc2)c(C#N)c1=O
metabolised at 0.25 h, 5 µM [2]: 36%
inhibition at 5 min, 3 µM [3]: 33%
metabolised at 0.25 h, 5 µM [4]: 20%
EC50 [7]: 646 nM
Emax [9]: 249%

SMILES: CC(C)CCn1ccc(-c2ccc(Oc3cccnc3)cc2)c(C#N)c1=O
metabolised at 0.25 h, 5 µM [2]: 29%
inhibition at 5 min, 3 µM [3]: 30%
metabolised at 0.25 h, 5 µM [4]: 21%
solubility [29]: ≥ 4000 µg/mL
EC50 [7]: 479 nM
Emax [9]: 231%

SMILES: Cc1ncccc1Oc1ccc(-c2ccn(CC3CC3)c(=O)c2C#N)cc1
metabolised at 0.25 h, 5 µM [2]: 39%
metabolised at 0.25 h, 5 µM [4]: 36%
EC50 [7]: 1070 nM
Emax [9]: 155%
